# Experimental data published in publication PMC12527922, “Cocaine chemogenetics blunts drug-seeking by synthetic physiology” (Nature, 2025).
# Several values for one entry are separate records, joined by “and”; a condition that tells them apart may be missing. Equal entries are not always repeated.
# Test system: GRABDA dopamine sensor, nucleus accumbens shell
# Test: Fibre photometry of dopamine (GRABDA) after cocaine administration
# Type: in vivo, rat
# Set-up: GRABDA dopamine response per dose (sheet 4i), individual rats / GRABDA dopamine response per dose (sheet 4i), Mean: unit not given here
# Settings: for GRABDA dopamine signal, Mean / GRABDA dopamine signal, individual rats: Cocaine 5 mg/kg; for GRABDA dopamine signal, AVG: ED Fig. 9a, Cocaine 10 mg/kg
# Protocol: Male Sprague–Dawley rats were anaesthetized with isoflurane (1.5–2%) and then placed onto a stereotaxic frame (Kopf) and injected with AAV5-Syn::coca-5HT3-IRES-mCherry (0.5 µl, 4.95 × 10^12 vg per ml) into the LHb (AP, −3.8 mm relative to bregma; ML, ±0.7 mm; DV, −5.25 mm, at a 10° angle) (n = 5) or underwent sham surgery (n = 6). Rats were also implanted with an optic fibre (400 µm core, 0.50 NA) attached to a 2.5 mm diameter ferrule (Thorlabs) directed to the medial shell of the nucleus accumbens (AP, +1.7 mm relative to bregma; ML, ±0.9 mm; DV, −7.0 mm). To ensure that AAV9-Syn::GRABDA1m was transduced at the direct vicinity of the fibre tip, we coated the fibre with the AAV (0.4 µl, 5 × 10^12 vg per ml) using a silk fibroin film before its implantation as previously described.
# For fibre photometry, dopamine (GRABDA) dynamics were measured using a Tucker-Davis Technologies (TDT) system in anaesthetized rats. […] Data were acquired at 1 kHz. On the testing day, rats were anaesthetized (isoflurane: induction, 5%; maintenance, 3%) and attached to a photometry patch cord (400 μm core, 0.50 NA). GRABDA signals were then collected for 5 min, followed by a saline i.p. injection, and additional GRABDA signal measurement for 20 min. Cocaine was then injected i.p. at 20, 10 or 5 mg per kg, and the GRABDA signal was measured for an additional 20 min. Each rat was tested three times with cocaine doses administered in randomized order. Fibre photometry analyses were performed using scripts in MATLAB R2023b (MathWorks) based on codes from the Barker (https://github.com/djamesbarker)[64] and Lerner (https://github.com/talialerner/)[65] laboratories. […] The GRABDA signal was normalized to values at 1 min before saline or cocaine injection and shown as the average z-scored activity per min. […] Fibre photometry data are represented as mean ± s.e.m. Statistical analyses were performed using Prism 10 (GraphPad).
smiles,measurement,setting,value
COC(=O)[C@H]1[C@@H](OC(=O)c2ccccc2)C[C@@H]2CC[C@H]1N2C [cocaine],"GRABDA dopamine response per dose (sheet 4i), Mean","Coca-5HT3 rats, Dose 5 mg/kg",-63058.3
same,"GRABDA dopamine response per dose (sheet 4i), individual rats","Coca-5HT3 rats, Dose 5 mg/kg",-172031 and 384223 and 532188 and -477527 and -582145
same,"GRABDA dopamine response per dose (sheet 4i), Mean","Coca-5HT3 rats, Dose 10 mg/kg",347550
same,"GRABDA dopamine response per dose (sheet 4i), individual rats","Coca-5HT3 rats, Dose 10 mg/kg",537591 and 787483 and 404806 and 428321 and -420452
same,"GRABDA dopamine response per dose (sheet 4i), Mean","Coca-5HT3 rats, Dose 20 mg/kg",29421.8
same,"GRABDA dopamine response per dose (sheet 4i), individual rats","Coca-5HT3 rats, Dose 20 mg/kg",-332785 and -760751 and 326619 and 420379 and 493647
same,"GRABDA dopamine signal, Mean","Time 0, sheet 4g, 6 rats",0
same,"GRABDA dopamine signal, Mean","Time 0, sheet 4h, 5 rats",0.3508
same,"GRABDA dopamine signal, Mean","Time 1, sheet 4g, 6 rats",0.02583
same,"GRABDA dopamine signal, Mean","Time 1, sheet 4h, 5 rats",0.1222
same,"GRABDA dopamine signal, Mean","Time 2, sheet 4g, 6 rats",0.2299
same,"GRABDA dopamine signal, Mean","Time 2, sheet 4h, 5 rats",0.04413
same,"GRABDA dopamine signal, Mean","Time 3, sheet 4g, 6 rats",0.7586
same,"GRABDA dopamine signal, Mean","Time 3, sheet 4h, 5 rats",0.02999
same,"GRABDA dopamine signal, individual rats","Time 4, sheet 4g",0.7973 and 0.9252 and 2.611 and 0.5744 and 0.4159 and 0.8485
same,"GRABDA dopamine signal, Mean","Time 4, sheet 4g, 6 rats",1.0287
same,"GRABDA dopamine signal, Mean","Time 4, sheet 4h, 5 rats",-0.002503
same,"GRABDA dopamine signal, individual rats","Time 5, sheet 4g",1.23 and 1.254 and 3.178 and 1.255 and 0.28 and 0.3357
same,"GRABDA dopamine signal, Mean","Time 5, sheet 4g, 6 rats",1.255
same,"GRABDA dopamine signal, Mean","Time 5, sheet 4h, 5 rats",0.4003
same,"GRABDA dopamine signal, individual rats","Time 6, sheet 4g",1.399 and 1.386 and 3.378 and 1.497 and 0.2966 and 0.5676
same,"GRABDA dopamine signal, Mean","Time 6, sheet 4g, 6 rats",1.4208
same,"GRABDA dopamine signal, Mean","Time 6, sheet 4h, 5 rats",0.7136
same,"GRABDA dopamine signal, individual rats","Time 7, sheet 4g",1.395 and 1.753 and 3.423 and 2.3 and 0.321 and 1.639
same,"GRABDA dopamine signal, Mean","Time 7, sheet 4g, 6 rats",1.805
same,"GRABDA dopamine signal, Mean","Time 7, sheet 4h, 5 rats",0.8408
same,"GRABDA dopamine signal, individual rats","Time 8, sheet 4g",1.672 and 1.969 and 3.288 and 2.2806 and 0.5769 and 1.2461
same,"GRABDA dopamine signal, Mean","Time 8, sheet 4g, 6 rats",1.839
same,"GRABDA dopamine signal, Mean","Time 8, sheet 4h, 5 rats",0.8223
same,"GRABDA dopamine signal, individual rats","Time 9, sheet 4g",1.777 and 2.101 and 2.8254 and 2.6993 and 0.4303 and 1.7436
same,"GRABDA dopamine signal, Mean","Time 9, sheet 4g, 6 rats",1.93
same,"GRABDA dopamine signal, Mean","Time 9, sheet 4h, 5 rats",0.8303
same,"GRABDA dopamine signal, individual rats","Time 10, sheet 4g",1.667 and 2.313 and 2.507 and 2.586 and 1.167 and 0.977
same,"GRABDA dopamine signal, Mean","Time 10, sheet 4g, 6 rats",1.869
same,"GRABDA dopamine signal, Mean","Time 10, sheet 4h, 5 rats",0.9165
same,"GRABDA dopamine signal, individual rats","Time 11, sheet 4g",1.6386 and 2.495 and 2.468 and 3.874 and 0.606 and 2.597
same,"GRABDA dopamine signal, Mean","Time 11, sheet 4g, 6 rats",2.28
same,"GRABDA dopamine signal, Mean","Time 11, sheet 4h, 5 rats",0.6597
same,"GRABDA dopamine signal, individual rats","Time 12, sheet 4g",1.957 and 2.546 and 2.0788 and 2.652 and 0.8197 and 2.605
same,"GRABDA dopamine signal, Mean","Time 12, sheet 4g, 6 rats",2.11
same,"GRABDA dopamine signal, Mean","Time 12, sheet 4h, 5 rats",0.5883
same,"GRABDA dopamine signal, individual rats","Time 13, sheet 4g",1.603 and 2.238 and 1.918 and 2.979 and 1.082 and 2.101
same,"GRABDA dopamine signal, Mean","Time 13, sheet 4g, 6 rats",1.987
same,"GRABDA dopamine signal, Mean","Time 13, sheet 4h, 5 rats",0.5593
same,"GRABDA dopamine signal, individual rats","Time 14, sheet 4g",1.849 and 2.2953 and 1.648 and 2.627 and 1.351 and 2.787
same,"GRABDA dopamine signal, Mean","Time 14, sheet 4g, 6 rats",2.093
same,"GRABDA dopamine signal, Mean","Time 14, sheet 4h, 5 rats",0.3765
same,"GRABDA dopamine signal, individual rats","Time 15, sheet 4g",1.345 and 2.273 and 1.221 and 3.749 and 1.032 and 2.415
same,"GRABDA dopamine signal, Mean","Time 15, sheet 4g, 6 rats",2.006
same,"GRABDA dopamine signal, Mean","Time 15, sheet 4h, 5 rats",0.2825
same,"GRABDA dopamine signal, individual rats","Time 16, sheet 4g",1.5856 and 2.161 and 1.005 and 2.897 and 1.378 and 2.623
same,"GRABDA dopamine signal, Mean","Time 16, sheet 4g, 6 rats",1.942
same,"GRABDA dopamine signal, Mean","Time 16, sheet 4h, 5 rats",0.2717
same,"GRABDA dopamine signal, individual rats","Time 17, sheet 4g",1.282 and 2.066 and 0.8019 and 2.5132 and 1.107 and 1.846
same,"GRABDA dopamine signal, Mean","Time 17, sheet 4g, 6 rats",1.6029
same,"GRABDA dopamine signal, Mean","Time 17, sheet 4h, 5 rats",0.2019
same,"GRABDA dopamine signal, individual rats","Time 18, sheet 4g",1.176 and 1.956 (2×) and 0.485 and 2.977 and 1.512
same,"GRABDA dopamine signal, Mean","Time 18, sheet 4g, 6 rats",1.677
same,"GRABDA dopamine signal, Mean","Time 18, sheet 4h, 5 rats",0.2838
same,"GRABDA dopamine signal, individual rats","Time 19, sheet 4g",1.43 and 1.847 and 0.2727 and 2.8958 and 1.19 and 1.677
same,"GRABDA dopamine signal, Mean","Time 19, sheet 4g, 6 rats",1.552
same,"GRABDA dopamine signal, Mean","Time 19, sheet 4h, 5 rats",0.4407
same,"GRABDA dopamine signal, individual rats","Time -1, sheet 4g",0.1891 and 0.00306 and 0.03687 and -0.1715
same,"GRABDA dopamine signal, Mean","Time -1, sheet 4g, 6 rats",0.08979
same,"GRABDA dopamine signal, Mean","Time -1, sheet 4h, 5 rats",-0.1218
same,"GRABDA dopamine response per dose (sheet 4i), Mean","Control rats, Dose 5 mg/kg",575620
same,"GRABDA dopamine response per dose (sheet 4i), individual rats","Control rats, Dose 5 mg/kg",1106356 and 625102 and 499430 and 534300 and 481000 and 207530
same,"GRABDA dopamine response per dose (sheet 4i), Mean","Control rats, Dose 10 mg/kg",513482
same,"GRABDA dopamine response per dose (sheet 4i), individual rats","Control rats, Dose 10 mg/kg",1063773 and 869765 and 258346 and 365520 and 172520 and 350970
same,"GRABDA dopamine response per dose (sheet 4i), Mean","Control rats, Dose 20 mg/kg",564660
same,"GRABDA dopamine response per dose (sheet 4i), individual rats","Control rats, Dose 20 mg/kg",543312 and 940737 and 382973 and 597550 and 499710 and 423680
same,"GRABDA dopamine signal, AVG",Time 0,0.01595
same,"GRABDA dopamine signal, AVG",Time 1,0.04899
same,"GRABDA dopamine signal, AVG",Time 2,0.1402
same,"GRABDA dopamine signal, AVG",Time 3,0.549
same,"GRABDA dopamine signal, AVG",Time 4,0.7571
